How the values were obtained:
[1] = tested on: lymphoma CSC (c-Kit+Sca-1+ TGB lymphoma cells); experiment: Colony formation (CFU) assay of TGB lymphoma cells in 1% methylcellulose medium; type: cell-based, mouse; conditions: for effect on lymphoma CFU (colony number): cultured lymphoma cells treated 24 hours with pharmacologically effective doses (echinomycin: low doses), drugs washed away
Procedure: FIG. 2. HIF addiction of CSC. a. Selective ablation of lymphoma CFU by echinomycin. The cultured lymphoma cells were treated with given doses of pharmacologically effective drugs in medium for 24 hours. After washing away the drugs, the cells were cultured in 1% methylcellulose-containing medium, and the colony number was counted after 6 to 7 days. Data shown are means and SD of triplicates and have been confirmed by 3 independent experiments. b. A reporter system for HIF activity in the TGB lymphoma. Diagram of lentiviral construct for HIF activity is shown on the top. Pause, a sequence fragment to eliminate the effect of lentiviral promoter; HRE, Hypoxia response element (SEQ ID NO: 20); TATA, TATA sequence (TATATAAT) (top). Lower left, validation of the reporter. HEK293 cells were transiently transfected with cDNA encoding mutant HIF1α (P402A/P577A) or vector control in conjunction with either HRE-driven EGFP reporter, HRE mutant reporter (SEQ ID NO: 21). The cells were analyzed by flow cytometry to detect EGFP expression 36 hours after transduction. […] IC50 of echinomycin in the inhibition of HIF1α activity in lymphoma CSC. The lymphoma cells transfected with the HRE reporter system were cultured in the presence of different concentration of echinomycin for 12 hours, the % of c-Kit^+GFP^+ cells was normalized against the untreated group (1.13%, which was defined as 100%). […] Selectivity of HIF inhibitor for CFU of lymphoma CSC over the CFU from hematopoietic progenitor cells. c-Kit^+Sca-1^+ cells from either TGB or normal bone marrow were treated with given concentration of echinomycin overnight prior to plating in the medium containing 1% methylcellulose for CFU assay. The data shown were % of untreated controls, and were means+/−S.D. of triplicates. e. Therapeutic effect of a low dose of echinomycin. Cultured lymphoma cells (1×10^6/mouse) were injected i.p. into immune competent B10.BR mice. Fourteen days later, 10 μg/Kg/Injection of echimomycin was injected at a two-day interval for a total of 5 times. Control mice received vehicle only. The mice were observed daily for survival.
FIG. 6. HIF works in concert with Notch pathway to maintain CSC. a. Inhibition of colony-forming activity of CSC. The cultured lymphoma cells were treated with given doses of L685, 458 for 24 hours. After that, the cells were cultured in 1% methylcellulose-containing medium, and the colony number was counted after 6 to 7 days. Data shown are means+/−SD of triplicate samples and are representative of those of at least 3 independent experiments. b. Enhanced Notch activity in CSC, as indicated by the levels of Hes1 transcripts. The lymphoma cells from spleen with tumor in TGB transgenic mouse were sorted into c-kit^+Sca-1^+ or c-kit^−Sca-1^− fractions. The expressions of Hes1αnd mRNA in these two fractions were measured by real time PCR. c. Inhibition of Notch activity by 3 distinct HIF inhibitors. Cultured TGB lymphoma cells were stained with APC conjugated anti-c-Kit-antibody and enriched twice using anti-APC coated MACS beads according to manufacturer's protocol (Militenyi Biotec). The c-kit positive cells-enriched samples (60.4% c-Kit^+ cells) were treated with inhibitors of HIF for 16 hours. The mRNA from the treated cells were extracted for quantitation by real-time PCR. Data shown are means+/−SD of triplicates and represent those from at least 3 independent experiments. 2ME2, 2-methoxyestradiol; GA, geldamycin. d-g. […] A truncated Notch gene with potent dominant negative activity in inhibiting the expression of Notch target gene Hes. […] The right panel show dominant inhibition of Hes expression. After three consecutive transductions by either vector control or the dRdA1-4dOP mutant, the RNA were isolated and the transcripts of Hes measured by quantitative PCR. Data shown are means of triplicates and have been reproduced by two independent experiments. e. Notch I-C deltaRAM abrogates the c-Kit^+Sca-1^+ subset. […]

[2] = tested on: lymphoma CSC (c-Kit+Sca-1+ TGB lymphoma cells); experiment: as above; type: cell-based, mouse; conditions: first and second rounds of sorted cells, 1000/well, drug 24 hours, colonies counted after 5 days
TGB lymphoma = experiment: In vivo tumorigenicity / therapy of transplanted TGB lymphoma in B10.BR mice (survival); conditions: 9×10^5 lymphoma cells i.p., 5 injections at two day interval from day 8; less efficacy than echinomycin (FIG. 12b)
Procedure: FIG. 2. HIF addiction of CSC. a. Selective ablation of lymphoma CFU by echinomycin. The cultured lymphoma cells were treated with given doses of pharmacologically effective drugs in medium for 24 hours. After washing away the drugs, the cells were cultured in 1% methylcellulose-containing medium, and the colony number was counted after 6 to 7 days. Data shown are means and SD of triplicates and have been confirmed by 3 independent experiments. b. A reporter system for HIF activity in the TGB lymphoma. Diagram of lentiviral construct for HIF activity is shown on the top. Pause, a sequence fragment to eliminate the effect of lentiviral promoter; HRE, Hypoxia response element (SEQ ID NO: 20); TATA, TATA sequence (TATATAAT) (top). Lower left, validation of the reporter. HEK293 cells were transiently transfected with cDNA encoding mutant HIF1α (P402A/P577A) or vector control in conjunction with either HRE-driven EGFP reporter, HRE mutant reporter (SEQ ID NO: 21). The cells were analyzed by flow cytometry to detect EGFP expression 36 hours after transduction. […] IC50 of echinomycin in the inhibition of HIF1α activity in lymphoma CSC. […]
Given numbers of total tumor cells or sorted subsets were injected into either immune competent B10.BR mice or RAG-2^−/−BALB/c mice. […] The therapeutic effects were analyzed by Kaplan Meier survival analysis.

[3] = colonies counted after 6 to 7 days

| Structure (SMILES) | effect on lymphoma CFU (colony number) [1, 3] | other results |
| --- | --- | --- |
| OCC1OC(O)CC(O)C1O (stereo not shown) [2-DG] | no effect |  |
| COc1cc2c(cc1O)CC[C@@H]1[C@@H]2CC[C@]2(C)[C@@H](O)CC[C@@H]12 [2-methoxyestradiol] |  | inhibition of colony formation of sorted c-Kit+Sca-1+ tumor cells [2]: Inhibition; CFU of CSC ([1]; less efficacy than echinomycin (FIG. 12a)): reduced; tumor initiation of CSC (TGB lymphoma): reduced |
| COc1ccc2c(c1)c(C1=C(c3c[nH]c4ccccc34)C(=O)NC1=O)cn2CCCN(C)C [Gö6983] | no effect |  |
| O=S(=O)(NCCNC/C=C/c1ccc(Br)cc1)c1cccc2cnccc12 [H89] | no effect |  |
| CC(C)C[C@H](NC(=O)[C@H](Cc1ccccc1)C[C@@H](O)[C@H](Cc1ccccc1)NC(=O)OC(C)(C)C)C(=O)N[C@@H](Cc1ccccc1)C(N)=O [L-685, 458] |  | colony forming activity of lymphoma CSC ([1]; given doses for 24 hours, colonies counted after 6 to 7 days): potently blocked |
| O=c1cc(N2CCOCC2)oc2c(-c3ccccc3)cccc12 [Ly294002] | no effect |  |
| COc1cccc(-c2cc(=O)c3ccccc3o2)c1N [PD98059] | no effect |  |
| S=C(S)N1CCCC1 [PDTC] | no effect |  |
| CO[C@H]1C[C@@H]2CC[C@@H](C)[C@@](O)(O2)C(=O)C(=O)N2CCCC[C@H]2C(=O)O[C@H]([C@H](C)C[C@@H]2CC[C@@H](O)[C@H](OC)C2)CC(=O)[C@H](C)/C=C(\C)[C@@H](O)[C@@H](OC)C(=O)[C@H](C)C[C@H](C)/C=C/C=C/C=C/1C [Rapamycin] | no effect |  |
| C[S+]([O-])c1ccc(-c2nc(-c3ccncc3)c(-c3ccc(F)cc3)[nH]2)cc1 (stereo not shown) [SB203580] | no effect |  |
| Cn1cc(C2=C(c3ccc(Cl)cc3Cl)C(=O)NC2=O)c2ccccc21 [SB216763] | no effect |  |

From patent US9877998B2, “Uses of hypoxia-inducible factor inhibitors” (OncoImmune, Inc., priority 2009, dated 2018)
